The values below come from patent publication US20230220037A1, “NOVEL USE” (GlaxoSmithKline Intellectual Property (No.3) Limited, priority 0001, published 2023).

The test system of series [1] is TRPM3. It counts as cell-based, C57BL/6NJ mice and Sprague Dawley rats. The settings on record: cultured DRG neurons; agonist 30 min at 37° C.; PS 100 μM; ELISA. (An ELISA detects its analyte on a solid surface through an enzyme-linked reagent.)
The subject of series [2] is TRPM3. It counts as cell-based, C57BL/6NJ mice and Sprague Dawley rats. The settings on record: cultured TG neurons; agonist 30 min at 37° C.; ELISA.
For series [3], the target named is T1, TRPM3 (Mus musculus, UniProt J9SQF3). The settings on record: Held et al., PNAS 2015; cited from earlier work.
Series [4] has as its system TRPM3. The series is described as follows: CGRP release assay, wild type and Trpm3 knock out DRG and TG neurons. It counts as cell-based, mouse. The settings on record: for CGRP release from Trpm3 deficient sensory neurons: Trpm3 knock out DRG and TG neurons; for CGRP release from wild type sensory neurons: wild type DRG and TG neurons.
Series [5] has as its system TRPM3. The class given is cell-based, mouse. The settings on record: for TRPM3 dependence of agonist-induced PACAP release: mouse DRG and TG cells, wild type vs Trpm3 knockout.
For series [6], the system named is rats. In words: Five-day rat dural infusion migraine model, periorbital von Frey testing. It counts as in vivo. The settings on record: for Sensitivity to periorbital von Frey stimulation compared to vehicle treated animals: Day 5 (after 4 infusions). How it is done: The five-day rat Dural infusion migraine model is based on repeated inflammatory dural stimulation to mimic the repeated activation of dural afferents believed to occur in patients with recurrent migraine headache. In this model, rats are tested in the periorbital region for mechanical allodynia (a pain response to stimuli which are not normally painful) using von Frey fibres, which are small calibrated fibres which deliver a calibrated amount of force.
The surgery, infusion, and testing followed the modification of the method of Oshinsky & Gomoncharconsiri, 2007, supra. Briefly, rats were habituated and trained for 1-2 weeks and then fitted with a stainless-steel cannula (22GA, Plastics One) under isoflurane anaesthesia. […] Special attention was given not to disturb the dura. A custom flange guide cannula (22GA, Plastics One) was inserted into the hole (cut 0.5 mm below pedestal). The cannula was fixed to the bone with small screws and dental cement. A dummy that extended just past the end of the cannula was inserted to prevent scar tissue from forming, and thus clogging the cannula. Animals were allowed 1-2 weeks of recovery before testing and infusions began.
Periorbital thresholds were monitored during the recovery period to ensure the thresholds returned to pre-surgery baselines. […] Extra animals were included to account for any post-surgery animal that needed to be excluded.
After recovering from surgery, animals were infused supra-durally with treatments according to Table 1 for 5 consecutive days. Under isoflurane, the animal's nose was place in the nose cone of the anaesthesia machine. Using a haemostat, the base of the flange cannula was clasped, and the dummy cannula was removed. A custom cannula injector was inserted into the flange cannula. With a Hamilton syringe and infusion pump at a rate of 1.759 μl/min 15 μl of formulations was delivered supra-durally.
Animals were randomly assigned to a treatment group (A-C) using a software generated randomization scheme. From the first day of sensitization, each animal was tested routinely (every 2-3 days) for changes in periorbital sensitivity by a blinded investigator.
Pre-infusion sensory testing occurred on Day 1 of the testing schedule to provide a point of comparison for subsequent testing. Sensory testing occurred according to the testing schedule established in Table 1, and prior to infusion when applicable. Sensory testing utilized von Frey filaments with reproducible calibrated buckling forces varying from 0.4-10 g utilizing the Chaplan up and down method. Allodynia was tested by perpendicularly touching the periorbital region causing slight buckling of the filament for approximately 5 seconds. Based on the response pattern and the force of the final filament, the periorbital threshold (g) was calculated (Chaplan et al., 1994, Quantitative assessment of tactile allodynia in the rat paw. Journal of neuroscience methods, 53(1), 55-63). The supra-dural infusions were above the dura in the right brain hemisphere; therefore, the right periorbital threshold data only was recorded. A positive response was characterized by several behavioural criteria: stroking the face with a forepaw, head withdrawal from the stimulus, and head shaking.

The target in series [7] is T2, TRPM3 (SEQ ID NO: 2) (Homo sapiens, UniProt Q9HCF6).
T2 construct: expressed in transfected cells; host or cells: HEK MSR II cells transduced with BacMam virus (codon optimised cDNA)
The series is described as follows: Calcium mobilisation assay, HEK MSR II cells expressing canonical TRPM3. It counts as cell-based. The settings on record: for Relative agonist potency of the isomers of CIM0216 in calcium mobilisation assay: R-isomer vs S-isomer. As for the experimental part: (§1) Example 3—Calcium mobilisation assay and cell lines Calcium mobilisation assays were performed in HEK MSR II cells loaded with the calcium indicator dye Fluo4. The cells were induced to express TRPM3 (SEQ ID NO: 2) or mutants thereof by transducing them with Bacmam virus containing the codon optimised cDNA sequence for the required TRPM3 variant at a multiplicity of infection of approximately 40 for 48 hours prior to the experiment. Cells were incubated in the presence of FLUO4-AM and TRPM3 inhibitors for approx 1.5 hrs prior to transfer to a FLIPR where the cells were treated with TRPM3 agonists to induce calcium mobilisation. Fluo4 fluorescence was monitored for 10 min. As a positive control the cells were then treated with the calcium ionophore ionomycin and the fluorescence monitored for a further 3 min.

The target of series [8] is T3, variant of SEQID NO: 2 having the R1670Q mutation (Homo sapiens, UniProt Q9HCF6, R1695Q).
T3 construct: expressed in transfected cells; host or cells: HEK MSR II cells transduced with BacMam virus (codon optimised cDNA)
In words: Calcium mobilisation assay, HEK MSR II cells expressing TRPM3 R1670Q variant. The class given is cell-based. As for the experimental part:
as §1
Background: Calcium assays in cells follow changes in intracellular calcium, usually with a dye or a luminescent sensor.

The target of series [9] is T1, TRPM3. Further details: trigeminal neurons from mice; host or cells: trigeminal neurons from mice. The settings on record: Vriens et al., Neuron 2011; cited from earlier work.
For series [10], the system named is PACAP-38. The settings on record: treatment with sumatriptan; cited from earlier work.
Series [11] has as its system rats. The settings on record: inflammatory soup infusion; historical data; cited from earlier work.
Setting [12] is: supra-dural infusion 5 days, Pregnenolone sulphate 5 mM, CIM0216 215 μM.
Setting [13] is: HEK MSR II cells, Bacmam transduction.

Entries after “also recorded” stand apart in the source; their conditions may differ.

T3 sequence (Q9HCF6 1-1707 isoform Q9HCF6-2 R1670Q): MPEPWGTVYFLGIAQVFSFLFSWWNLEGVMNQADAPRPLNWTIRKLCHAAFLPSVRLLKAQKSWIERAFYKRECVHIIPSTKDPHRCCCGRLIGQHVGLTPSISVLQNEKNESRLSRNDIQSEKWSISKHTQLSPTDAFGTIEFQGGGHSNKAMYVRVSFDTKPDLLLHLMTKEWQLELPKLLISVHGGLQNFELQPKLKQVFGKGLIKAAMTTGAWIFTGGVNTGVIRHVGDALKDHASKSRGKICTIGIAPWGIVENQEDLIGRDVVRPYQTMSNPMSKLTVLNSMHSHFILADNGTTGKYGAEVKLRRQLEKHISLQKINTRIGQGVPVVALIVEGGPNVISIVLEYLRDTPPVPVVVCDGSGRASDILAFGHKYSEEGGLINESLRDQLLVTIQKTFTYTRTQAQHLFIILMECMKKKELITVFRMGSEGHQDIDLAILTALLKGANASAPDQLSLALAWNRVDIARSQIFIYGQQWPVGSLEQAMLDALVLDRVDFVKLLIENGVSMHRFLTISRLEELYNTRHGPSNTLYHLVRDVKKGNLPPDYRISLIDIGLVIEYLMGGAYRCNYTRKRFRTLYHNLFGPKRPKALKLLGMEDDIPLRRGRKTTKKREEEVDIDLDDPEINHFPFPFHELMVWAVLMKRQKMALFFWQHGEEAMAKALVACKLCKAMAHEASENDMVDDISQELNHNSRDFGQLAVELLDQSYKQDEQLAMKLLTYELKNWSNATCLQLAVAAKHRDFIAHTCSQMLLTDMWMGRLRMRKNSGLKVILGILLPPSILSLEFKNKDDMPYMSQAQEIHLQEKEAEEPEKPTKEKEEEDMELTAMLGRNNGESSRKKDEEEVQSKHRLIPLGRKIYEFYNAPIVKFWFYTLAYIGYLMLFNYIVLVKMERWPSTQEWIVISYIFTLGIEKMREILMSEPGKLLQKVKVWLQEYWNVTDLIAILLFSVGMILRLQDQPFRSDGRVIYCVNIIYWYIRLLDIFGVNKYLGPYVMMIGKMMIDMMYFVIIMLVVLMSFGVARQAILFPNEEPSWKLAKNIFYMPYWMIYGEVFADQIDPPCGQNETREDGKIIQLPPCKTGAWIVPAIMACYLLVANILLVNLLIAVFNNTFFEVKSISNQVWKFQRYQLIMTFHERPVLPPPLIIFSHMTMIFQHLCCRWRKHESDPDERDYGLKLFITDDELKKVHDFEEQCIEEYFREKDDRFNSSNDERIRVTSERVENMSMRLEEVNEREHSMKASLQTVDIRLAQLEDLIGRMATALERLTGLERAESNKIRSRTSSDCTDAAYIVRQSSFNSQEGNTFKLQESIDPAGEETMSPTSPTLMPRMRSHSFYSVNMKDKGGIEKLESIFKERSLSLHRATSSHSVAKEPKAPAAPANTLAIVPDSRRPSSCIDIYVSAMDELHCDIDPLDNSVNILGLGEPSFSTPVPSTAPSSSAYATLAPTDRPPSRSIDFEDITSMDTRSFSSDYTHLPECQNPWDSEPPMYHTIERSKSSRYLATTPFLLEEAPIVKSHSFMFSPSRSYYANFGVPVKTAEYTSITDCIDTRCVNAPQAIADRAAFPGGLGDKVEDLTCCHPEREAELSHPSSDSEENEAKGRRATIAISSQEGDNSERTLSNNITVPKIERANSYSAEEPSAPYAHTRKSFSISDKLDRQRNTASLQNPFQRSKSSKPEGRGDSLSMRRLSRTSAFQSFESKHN
T2 sequence (Q9HCF6 1-1707 isoform Q9HCF6-2): as the sequence (Q9HCF6 1-1707 isoform Q9HCF6-2 R1670Q) above, with Q1670R counted along it
T1 sequence (J9SQF3 whole entry): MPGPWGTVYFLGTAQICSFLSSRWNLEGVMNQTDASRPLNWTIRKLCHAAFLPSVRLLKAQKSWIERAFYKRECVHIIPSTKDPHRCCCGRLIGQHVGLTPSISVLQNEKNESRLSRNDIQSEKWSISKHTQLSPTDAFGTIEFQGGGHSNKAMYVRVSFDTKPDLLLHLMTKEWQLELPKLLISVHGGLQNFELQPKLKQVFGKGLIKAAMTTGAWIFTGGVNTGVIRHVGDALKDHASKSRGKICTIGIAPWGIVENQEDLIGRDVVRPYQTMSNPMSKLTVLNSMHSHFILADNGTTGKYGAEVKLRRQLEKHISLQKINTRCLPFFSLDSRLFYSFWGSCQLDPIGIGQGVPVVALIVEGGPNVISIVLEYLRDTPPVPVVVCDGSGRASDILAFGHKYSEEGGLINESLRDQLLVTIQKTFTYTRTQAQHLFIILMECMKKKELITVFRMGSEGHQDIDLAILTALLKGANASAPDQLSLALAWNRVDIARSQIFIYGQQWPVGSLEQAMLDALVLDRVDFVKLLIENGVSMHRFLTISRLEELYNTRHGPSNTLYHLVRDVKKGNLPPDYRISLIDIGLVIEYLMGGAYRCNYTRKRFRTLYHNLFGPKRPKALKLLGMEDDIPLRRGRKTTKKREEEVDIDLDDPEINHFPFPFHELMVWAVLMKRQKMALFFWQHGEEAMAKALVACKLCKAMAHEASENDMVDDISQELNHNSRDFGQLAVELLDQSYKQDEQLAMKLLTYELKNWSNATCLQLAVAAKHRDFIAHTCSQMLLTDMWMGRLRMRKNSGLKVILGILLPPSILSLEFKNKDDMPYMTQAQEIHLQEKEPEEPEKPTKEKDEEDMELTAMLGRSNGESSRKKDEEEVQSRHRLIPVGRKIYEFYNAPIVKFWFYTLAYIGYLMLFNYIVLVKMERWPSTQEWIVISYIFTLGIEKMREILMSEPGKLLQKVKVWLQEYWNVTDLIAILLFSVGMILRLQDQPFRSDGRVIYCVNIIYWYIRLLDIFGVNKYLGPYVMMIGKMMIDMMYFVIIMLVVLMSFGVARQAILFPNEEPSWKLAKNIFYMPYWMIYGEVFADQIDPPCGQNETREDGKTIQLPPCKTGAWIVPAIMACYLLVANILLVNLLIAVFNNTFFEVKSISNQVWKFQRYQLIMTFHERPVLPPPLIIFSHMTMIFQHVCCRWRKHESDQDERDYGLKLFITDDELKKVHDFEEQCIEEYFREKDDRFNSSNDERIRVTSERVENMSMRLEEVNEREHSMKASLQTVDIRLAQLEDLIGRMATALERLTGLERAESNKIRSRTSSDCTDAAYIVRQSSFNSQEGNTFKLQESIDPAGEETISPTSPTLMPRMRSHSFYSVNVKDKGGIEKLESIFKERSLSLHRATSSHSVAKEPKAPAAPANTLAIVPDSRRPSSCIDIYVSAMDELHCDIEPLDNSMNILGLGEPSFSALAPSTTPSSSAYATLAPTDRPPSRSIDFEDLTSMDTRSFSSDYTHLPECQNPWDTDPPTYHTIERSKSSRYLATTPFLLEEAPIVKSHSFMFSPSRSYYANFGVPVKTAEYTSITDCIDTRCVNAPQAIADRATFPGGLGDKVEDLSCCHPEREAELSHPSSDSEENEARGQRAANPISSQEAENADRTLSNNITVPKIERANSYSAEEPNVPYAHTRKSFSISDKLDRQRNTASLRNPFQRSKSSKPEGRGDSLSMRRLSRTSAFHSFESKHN

As to `Cc1cc(NC(=O)C(c2ccccc2)N2CCCc3ccccc32)no1` (racemic) [CIM0216, 2-(3,4-dihydroquinolin-1(2H)-yl)-N-(5-methylisoxazol-3-yl)-2-phenylacetamide], the “CGRP release from DRG neurons induced by TRPM3 agonist” value in [1] is “induced a concentration dependent release of CGRP; also recorded: induce release of CGRP”. Also, in series [2], the “CGRP release from TG neurons induced by TRPM3 agonist” value is reported as “induced a concentration dependent release of CGRP; also recorded: stimulate release of CGRP”. Further, the “CGRP release from isolated mouse hind paw skin” value in series [3] is recorded as “induced to release CGRP”. Further, in [4], the “CGRP release from Trpm3 deficient sensory neurons” value is listed as “absent; also recorded: lacking” and the “CGRP release from wild type sensory neurons” value is “dose-dependent release of CGRP”. Further, the “TRPM3 dependence of agonist-induced PACAP release” value in series [5] is “dependent on TRPM3”. Further, in series [6], the “Sensitivity to periorbital von Frey stimulation compared to vehicle treated animals” value was “effective in increasing sensitivity to periorbital von Frey (VF) stimulation as early as Day 5”. For the same compound, in series [6] (setting [12]), the “Mechanical allodynia in the periorbital region (von Frey thresholds)” value is listed as “induce mechanical allodynia in the periorbital region of rats; also recorded: trigger mechanical allodynia in the periorbital region” and the “Overt adverse effects / body weight” value is “do not cause overt adverse effects”.
Regarding pregnenolone sulfate, the “CGRP release from DRG neurons induced by TRPM3 agonist” value in series [1] is “increased release of CGRP; also recorded: induce release of CGRP”. The “Increase in FLUO4 fluorescence, canonical TRPM3” value in series [7] (setting [13]) is reported as “induced concentration-dependent increases in FLUO4 fluorescence”. In addition, in [2], the “CGRP release from TG neurons induced by TRPM3 agonist” value is recorded as “increased release of CGRP; also recorded: demonstrated to be concentration dependent; also recorded: stimulate release of CGRP”. Further, in series [4], the “CGRP release from Trpm3 deficient sensory neurons” value is “absent” and the “CGRP release from wild type sensory neurons” value is on record as “dose-dependent release of CGRP”. The “CGRP release from Trpm3 deficient sensory neurons” value in series [4] (listed as PS) is listed as “lacking”. In series [5], the “TRPM3 dependence of agonist-induced PACAP release” value is reported as “dependent on TRPM3”. Besides, in series [6], the “Sensitivity to periorbital von Frey stimulation compared to vehicle treated animals” value is on record as “effective in increasing sensitivity to periorbital von Frey (VF) stimulation as early as Day 5”. In addition, the “Mechanical allodynia in the periorbital region (von Frey thresholds)” value in series [6] (setting [12]) is reported as “induce mechanical allodynia in the periorbital region of rats; also recorded: trigger mechanical allodynia in the periorbital region”. Further, the “Increase in FLUO4 fluorescence, R1670Q variant” value in series [8] (setting [13]) is on record as “induced concentration-dependent increases in FLUO4 fluorescence”. Also, the “Potency at the R1670Q variant relative to canonical TRPM3” value in [8] (greater at R1670Q, equal multiplicities of infection) amounted to 1.8 fold. The “Maximal fold change in fluorescence at R1670Q variant relative to canonical” value in series [8] (larger at R1670Q, equal multiplicities of infection) came to 26%. Further, the “Inward current in trigeminal neurons” value in series [9] is reported as “induced an inward current”.
For `COc1cc(CNC(=O)CCCC/C=C/C(C)C)ccc1O` [capsaicin], the “CGRP release from Trpm3 deficient sensory neurons” value is given as “could be induced by capsaicin” in [4] and “evoked CGRP release” in series [4] (listed as Capsaicin). For the same compound, the “PACAP release from Trpm3 knockout cells” value in series [5] (Trpm3 knockout mouse DRG and TG cells) is recorded as “still responsive”.
Consider `CNS(=O)(=O)Cc1ccc2[nH]cc(CCN(C)C)c2c1` [sumatriptan], for which the PACAP-38 levels result in series [10] is “decreased PACAP-38 levels”. In series [11], the Mechanical nociception sensitivity entry is on record as “alleviated”.
Take `Cc1cc(NC(=O)[C@@H](C)N2CCCc3ccccc32)no1` (single isomer, unassigned) [R-isomer]: the “Relative agonist potency of the isomers of CIM0216 in calcium mobilisation assay” value in [7] is on record as “more potent agonist compared to the S-isomer”; in [7] (listed as (R)-2-(3,4-dihydroquinolin-1(2H)-yl)-N-(5-methylisoxazol-3-yl)propenamide), “more potent agonist than the (S)-isomer”.
